Laboratory results from US10077237B2 (Sanofi, priority 2013, dated 2018).
Values joined by “and” are separate entries in the source; they are usually repeats but may differ in a detail not shown here. Identical values can stand only once. Counter-ions that a name gives are not always drawn.

Molecular target: T1, recombinant human AMPK complex, containing α2β1γ2 (Homo sapiens, UniProt P54646+Q9Y478)
T1 construct: hsAMPKα2-552-His, hsAMPKβ1-2-270 and hsAMPKγ-2-569 respectively; hsAMPKβ1-2-270; hsAMPKγ-2-569; His (C); made in house; host or cells: Spodoptera frugiperda Sf21 (baculovirus)
Experiment: AMPK in vitro activation assay (HTRF)
Assay type: biochemical
Conditions: for EC50: HTRF, recombinant human α2β1γ2 AMPK, 200 μM ATP, biotinylated ACC-CREBp peptide, repeat determinations on separate lines; for Emax / α2β1γ2 AMPK Emax: potentiation of AMPK activity as percent over the basal signal (without compound)
How it was run: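 HTRF phosphorylation read-out (Eu-cryptate anti-pS133-CREB, streptavidin-XL665) after a 45 min, 37° C kinase step. This step was initiated by a solution with 200 μM ATP and 2 or 0.08 μM biotinylated ACC-CREBp peptide. Beforehand, compound sat 30 min at room temperature with baculovirus/Sf21 α2β1γ2 in pH 7.0 HEPES buffer; EC50 derived from activation over basal.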

T1 sequence (P54646 2-552): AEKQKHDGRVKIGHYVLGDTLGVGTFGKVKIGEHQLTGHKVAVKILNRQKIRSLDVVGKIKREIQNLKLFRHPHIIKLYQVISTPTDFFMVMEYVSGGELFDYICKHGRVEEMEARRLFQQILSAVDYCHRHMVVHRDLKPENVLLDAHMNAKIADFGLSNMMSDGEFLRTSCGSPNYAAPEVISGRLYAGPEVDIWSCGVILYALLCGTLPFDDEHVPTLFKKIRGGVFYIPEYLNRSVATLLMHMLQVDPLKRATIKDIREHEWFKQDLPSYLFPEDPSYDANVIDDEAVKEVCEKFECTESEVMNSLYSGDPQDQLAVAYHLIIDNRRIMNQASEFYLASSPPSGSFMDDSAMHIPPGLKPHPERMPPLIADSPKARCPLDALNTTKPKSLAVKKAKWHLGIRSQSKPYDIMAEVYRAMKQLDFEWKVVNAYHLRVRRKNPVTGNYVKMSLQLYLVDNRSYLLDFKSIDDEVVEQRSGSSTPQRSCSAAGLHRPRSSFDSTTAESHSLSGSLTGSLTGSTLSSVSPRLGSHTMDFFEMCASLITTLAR
T1 sequence (Q9Y478 2-270): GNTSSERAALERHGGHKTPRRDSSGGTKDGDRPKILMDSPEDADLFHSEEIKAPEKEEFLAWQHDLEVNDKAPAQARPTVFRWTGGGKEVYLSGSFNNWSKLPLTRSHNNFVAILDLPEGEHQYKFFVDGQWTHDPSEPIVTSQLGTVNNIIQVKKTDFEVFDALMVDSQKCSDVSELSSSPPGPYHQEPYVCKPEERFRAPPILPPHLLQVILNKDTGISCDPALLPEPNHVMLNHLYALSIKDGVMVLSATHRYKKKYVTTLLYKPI
T1 sequence (Q9UGJ0 2-569 partner limits assumed): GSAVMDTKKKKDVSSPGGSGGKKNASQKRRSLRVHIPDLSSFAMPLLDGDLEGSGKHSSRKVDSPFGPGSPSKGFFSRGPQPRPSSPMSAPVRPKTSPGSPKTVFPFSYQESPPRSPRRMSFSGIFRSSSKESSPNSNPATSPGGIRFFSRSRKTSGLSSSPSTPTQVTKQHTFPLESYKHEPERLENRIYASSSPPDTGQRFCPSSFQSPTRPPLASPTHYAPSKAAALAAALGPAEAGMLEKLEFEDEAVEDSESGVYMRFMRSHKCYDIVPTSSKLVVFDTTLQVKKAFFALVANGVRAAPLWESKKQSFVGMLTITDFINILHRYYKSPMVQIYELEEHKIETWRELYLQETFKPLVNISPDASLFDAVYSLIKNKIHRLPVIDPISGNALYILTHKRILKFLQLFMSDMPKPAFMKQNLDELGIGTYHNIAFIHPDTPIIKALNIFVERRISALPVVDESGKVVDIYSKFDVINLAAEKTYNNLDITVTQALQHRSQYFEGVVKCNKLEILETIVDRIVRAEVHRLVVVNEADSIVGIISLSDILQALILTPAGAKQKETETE

| Compound | EC50 | Emax [%] | α2β1γ2 AMPK Emax |
| --- | --- | --- | --- |
| CCOc1ccc(-c2cc3c(cc2Cl)NC(=O)C3=C(O)c2cc(C)no2)cc1 [Compound 66, 6-Chloro-5-(4-ethoxy-phenyl)-3-[1-hydroxy-1-(3-methyl-isoxazol-5-yl)-methylidene]-1,3-dihydro-indol-2-one] | 3070 nM | 192 |  |
| Cc1cc(C(O)=C2C(=O)Nc3cc(Cl)c(-c4ccc(N5CCOCC5)cc4)cc32)sn1 [Compound 13, 6-Chloro-3-[1-hydroxy-1-(3-methyl-isothiazol-5-yl)-methylidene]-5-(4-morpholin-4-yl-phenyl)-1,3-dihydro-indol-2-one] | 12 nM and 5 nM |  |  |
| Cc1cc(C(O)=C2C(=O)Nc3cc(Cl)c(-c4ccc(OCC5COC5)cc4)cc32)on1 [Compound 132, 6-chloro-3-[hydroxy-(3-methylisoxazol-5-yl)methylene]-5-[4-(oxetan-3-ylmethoxy)phenyl]indolin-2-one] | 49 nM | 364 |  |
| CC(C)(C)c1cc(C(O)=C2C(=O)Nc3cc(Cl)c(-c4ccc(C5(CO)CC5)cc4)cc32)on1 [Compound 76, 3-[1-(3-tert-Butyl-isoxazol-5-yl)-1-hydroxy-methylidene]-6-chloro-5-[4-(1-hydroxymethyl-cyclopropyl)phenyl]-1,3-dihydro-indol-2-one] | 2 nM | 124 |  |
| COc1ccc(C(O)=C2C(=O)Nc3cc(Cl)c(-c4ccc(-c5cccc(OC)c5O)cc4)cc32)cc1F [Compound 84, 6-chloro-3-[(3-fluoro-4-methoxy-phenyl)hydroxy-methylene]-5-[4-(2-hydroxy-3-methoxy-phenyl)phenyl]indolin-2-one] | 0.6 nM and 1 nM | 170 |  |
| 6-Chloro-3-[1-hydroxy-1-(3-methoxy-isoxazol-yl)-methylidene]-5-[4-(1-hydroxymethyl-cyclopropyl)-phenyl]-1,3-dihydro-indol-2-one [Compound 54] | 5 nM |  | (187) % |
| COc1ccc(C(O)=C2C(=O)Nc3cc(Cl)c(-c4ccc(N5CCOCC5)cc4)cc32)c(F)c1F [Compound 98, 6-chloro-3-[(2,3-difluoro-4-methoxy-phenyl)hydroxy-methylene]-5-(4-morpholinophenyl)indolin-2-one] | 2 nM | 191 |  |
| O=C1Nc2cc(Cl)c(-c3ccc(C4(CO)CC4)cc3)cc2C1=C(O)c1cc2cc(Cl)ccc2o1 [Compound 170, 6-chloro-3-[(5-chlorobenzofuran-2-yl)hydroxy-methylene]-5-[4-[1-(hydroxymethyl)cyclopropyl]phenyl]indolin-2-one] | 6 nM | 181 |  |
| COc1ccc(C(O)=C2C(=O)Nc3cc(Cl)c(-c4ccc(C5(CO)CC5)cc4)cc32)cn1 [Compound 116, 6-chloro-3-[hydroxy-(6-methoxy-3-pyridyl)methylene]-5-[4-[1-(hydroxymethyl)cyclopropyl]phenyl]indolin-2-one hydrochloride] | 0.3 nM and 0.8 nM |  |  |
| COc1cc(C(O)=C2C(=O)Nc3cc(Cl)c(-c4ccc(OC5CCOCC5)cc4)cc32)on1 [Compound 128, 6-chloro-3-[hydroxy-(3-methoxyisoxazol-5-yl)methylene]-5-(4-tetrahydropyran-4-yloxyphenyl)indolin-2-one] | 52 nM | 288 |  |
| COc1cc(C(O)=C2C(=O)Nc3cc(Cl)c(-c4ccc(C5=CCOCC5)cc4)cc32)on1 [Compound 67, 6-Chloro-5-[4-(3,6-dihydro-2H-pyran-4-yl)phenyl]-3-[1-hydroxy-1-(3-methoxy-isoxazol-5-yl)methylidene]-1,3-dihydro-indol-2-one] | 3 nM | 192 |  |
| Cc1nocc1C(O)=C1C(=O)Nc2cc(Cl)c(-c3ccc(N4CCOCC4)cc3)cc21 [Compound 60, 6-Chloro-3-[1-hydroxy-1-(3-methyl-isoxazol-4-yl)-methylidene]-5-(4-morpholin-4-yl-phenyl)-1,3-dihydro-indol-2-one] | 770 nM | 298 |  |
| COc1cc(C(O)=C2C(=O)Nc3cc(Cl)c(-c4ccc(N(C)C)cc4F)cc32)on1 [Compound 148, 6-chloro-5-[4-(dimethylamino)-2-fluoro-phenyl]-3-[hydroxy-(3-methoxyisoxazol-5-yl)methylene]indolin-2-one] | 1 nM | 158 |  |
| COc1cccc(-c2ccc(-c3cc4c(cc3Cl)NC(=O)C4=C(O)c3cc(C4CC4)no3)cc2)c1O [Compound 117, 6-chloro-3-[(3-cyclopropylisoxazol-5-yl)hydroxy-methylene]-5-[4-(2-hydroxy-3-methoxy-phenyl)phenyl]indolin-2-one] | 0.1 nM | 129 |  |
| Cc1cc(C(O)=C2C(=O)Nc3cc(Cl)c(-c4ccc(C5(CO)CC5)cc4)cc32)on1 [Compound 6, 6-Chloro-5-[4-(1-hydroxymethyl-cyclopropyl)-phenyl]-3-[1-hydroxy-1-(3-methyl-isoxazol-5-yl)-methylidene]-1,3-dihydro-indol-2-one] | 7 nM | 186 |  |
| O=C1Nc2cc(F)c(-c3ccc(C4(CO)CC4)cc3)c(F)c2C1=C(O)c1cc(C2CC2)no1 [Compound 120, 3-[(3-cyclopropylisoxazol-5-yl)hydroxy-methylene]-4,6-difluoro-5-[4-[1-(hydroxymethyl)cyclopropyl]phenyl]indolin-2-one] | 0.2 nM | 169 |  |
| COc1cccc(-c2ccc(-c3cc4c(cc3Cl)NC(=O)C4=C(O)c3cc(OC(C)C)no3)cc2)c1O [Compound 109, 6-chloro-3-[hydroxy-(3-isopropoxyisoxazol-5-yl)methylene]-5-[4-(2-hydroxy-3-methoxy-phenyl)phenyl]indolin-2-one] | 0.6 nM | 165 |  |
| COCCCOc1ccc(-c2cc3c(cc2Cl)NC(=O)C3=C(O)c2cc(OC)no2)cc1 [Compound 131, 6-chloro-3-[hydroxy-(3-methoxyisoxazol-5-yl)methylene]-5-[4-(3-methoxypropoxy)phenyl]indolin-2-one] | 33 nM and 86 nM |  |  |
| O=C1Nc2cc(Cl)c(-c3ccc(C4CC(O)C4)cc3)cc2C1=C(O)c1cc(F)cc(F)c1 (stereo not drawn) [Compound 161, 6-chloro-3-[(3,5-difluorophenyl)hydroxy-methylene]-5-[4-(3-hydroxycyclobutyl)phenyl]indolin-2-one] | 15 nM | 155 |  |
| COc1cccc(-c2ccc(-c3cc4c(cc3Cl)NC(=O)C4=C(O)c3cnc(C)s3)cc2)c1O [Compound 51, 6-Chloro-5-(2′-hydroxy-3′-methoxy-biphenyl-4-yl)-3-[1-hydroxy-1-(2-methyl-thiazol-5-yl)-methylidene]-1,3-dihydro-indol-2-one] | 11 nM | 129 |  |

The remaining lines, values ahead:

| EC50 | Emax [%] | α2β1γ2 AMPK Emax | Compound |
| --- | --- | --- | --- |
| 53 nM |  | (183 +/− 51) % | Cc1cc(C([O-])=C2C(=O)Nc3cc(Cl)c(-c4ccc(N(C)C)cc4)cc32)on1.[Na+] [Compound 2, 6-Chloro-5-(4-dimethylamino-phenyl)-3-[1-hydroxy-1-(3-methyl-isoxazol-5-yl)-methylidene]-1,3-dihydro-indol-2-one, sodium salt] |
| 1 nM | 172 |  | COc1cc(C(O)=C2C(=O)Nc3cc(Cl)c(-c4ccc(-c5cccc(OC)c5O)cc4)cc32)on1 [Compound 12] |
| 0.3 nM | 173 |  | O=C1Nc2cc(Cl)c(-c3ccc(C4(CO)CC4)cc3)cc2C1=C(O)c1cc2ccccc2o1 [Compound 168, 3-[benzofuran-2-yl(hydroxy)methylene]6-chloro-5-[4-[1-(hydroxymethyl)cyclopropyl]phenyl]indolin-2-one] |
| 6 nM | 141 |  | COc1cc(F)c(C(O)=C2C(=O)Nc3cc(Cl)c(-c4ccc(N5CCOCC5)cc4)cc32)cc1F [Compound 108, 6-chloro-3-[(2,5-difluoro-4-methoxy-phenyl)hydroxy-methylene]-5-(4-morpholinophenyl)indolin-2-one] |
| 2 nM | 122 |  | O=C1Nc2cc(Cl)c(-c3ccc(N4CCOCC4)cc3)cc2C1=C(O)c1cc(O)no1 [Compound 102, 6-chloro-3-[hydroxy-(3-hydroxyisoxazol-5-yl)methylene]-5-(4-morpholinophenyl)indolin-2-one] |
| 0.5 nM | 128 |  | COc1ccc(C(O)=C2C(=O)Nc3cc(Cl)c(-c4ccc(N5CCOCC5)cc4)cc32)cc1F [Compound 77, 6-Chloro-3-[1-(3-fluoro-4-methoxy-phenyl)-1-hydroxy-methylidene]-5-(4-morpholin-4-yl-phenyl)-1,3-dihydro-indol-2-one] |
| 27 nM | 257 |  | Cc1nc(C)c(C(O)=C2C(=O)Nc3cc(Cl)c(-c4ccc(N5CCOCC5)cc4)cc32)s1 [Compound 15, 6-Chloro-3-[1-(2,4-dimethyl-thiazol-5-yl)-1-hydroxy-methylidene]-5-(4-morpholin-4-yl-phenyl)-1,3-dihydro-indol-2-one] |
| 1630 nM | 141 |  | CCc1ccc(-c2cc3c(cc2Cl)NC(=O)C3=C(O)c2cc(C)no2)cc1 [Compound 64, 6-Chloro-5-(4-ethyl-phenyl)-3-[1-hydroxy-1-(3-methyl-isoxazol-5-yl)-methylidene]-1,3-dihydro-indol-2-one] |
| 3 nM | 115 |  | O=C1Nc2cc(Cl)c(-c3ccc(N4CCOCC4)cc3)cc2C1=C(O)c1cc(Br)no1 [Compound 41, 3-[1-(3-Bromo-isoxazol-5-yl)-1-hydroxy-methylidene]-6-chloro-5-(4-morpholin-4-yl-phenyl)-1,3-dihydro-indol-2-one] |
| 63 nM | 159 |  | Cc1cc(C(O)=C2C(=O)Nc3cc(Cl)c(-c4ccc(OCc5ncccn5)cc4)cc32)on1 [Compound 101, 6-chloro-3-[hydroxy-(3-methylisoxazol-5-yl)methylene]-5-[4-(pyrimidin-2-ylmethoxy)phenyl]indolin-2-one] |
